Data taken from patent US8178506B2, “Oligomeric compounds and compositions for use in modulation of small non-coding RNAs” (Regulus Therapeutics Inc., priority 2003, dated 2012).
Values joined by “and” are separate entries in the source; they are usually repeats but may differ in a detail not shown here. Equal values may be shown once. In the oligonucleotide strings, read from the 5' end, every base follows the letter of its sugar. An asterisk marks phosphorothioate; unmarked linkages are phosphodiester. Other units and linkages are bracketed, terminal groups are in braces. A string of capitals states the bases alone. e = 2'-O-(2-methoxyethyl) (MOE); [5mC] = 5-methylcytosine; d = 2'-deoxy (DNA)

Test system: HeLa cells
Test: Cell cycle assay in HeLa cells
Format: cell-based, human
Details: for chromosome missegregation (subG1 or aneuploid DNA content) / phase of the cell cycle in which cells arrest or delay: HeLa; for chromosome missegregation (subG1 or aneuploid DNA content): 24-hour and 48-hour timepoints; for % cells in cell cycle phase: G1 / % cells in cell cycle phase: G2/M / % cells in cell cycle phase: S / % cells in cell cycle phase: aneuploid / % cells in cell cycle phase: subG1: 48 hours after treatment, relative to untreated control (UTC=100)
Protocol: In some embodiments, HeLa cells were plated on collagen-coated 24-well plates at 50,000-60,000 cells per well, and allowed to attach to wells overnight. In some embodiments, HeLa cells were synchronized by double thymidine block (cells were washed three times with PBS, then grown in 10% FBS containing 2 mM thymidine; then 19 hours later, cells were washed three times in PBS, 10% FBS for 9 hours; cells were then incubated in 10% FBS, 2 mM thymidine for 15 hours; then washed three times with PBS, 10% FBS and samples were taken every two hours over a 16 hour period). A portion of each time sample was fixed with ethanol and treated with propidium iodide and subjected to FACs analysis for determination of the percentage of cells in each phase of the cell cycle. […] HeLa cells treated with 10 μM cisplatin or 100 ng/ml nocodazole were used as controls for G1-phase and late G2/M-phases, respectively. From the remaining portion of each of these time samples, total RNA was isolated and used to assess the expression of cell cycle marker mRNAs using the real-time RT-PCR methods and/or used to screen microarrays to assess the expression of miRNAs over the course of the cell cycle. It was observed that several miRNAs are expressed in a cell-cycle-dependent manner. Shown in Table 30 are the mRNA levels of the E2F1 transcription factor and topoisomerase 2A (Top2A), which vary over the course of the cell cycle and can be used for comparison to the experimental groups for the confirmation of cell cycle phase. Data are an average of three trials.
In some embodiments, HeLa cells were also treated with oligomeric compounds targeting miRNAs. […] The medium was removed from the plates. Each well was washed in 250 μl of PBS. […] Control cells received LIPOFECTIN™ only. […] After 24 hours (Table 31) or 48 hours (Table 32), cells were prepared for flow cytometry analysis to generate a cell cycle profile. The cell cycle profile was analyzed with the ModFit program (Verity Software House, Inc., Topsham Me.).
The random-mer ISIS 29848 (SEQ ID NO: 737) was used as a negative control, and ISIS 183891 (SEQ ID NO: 847), targeting kinesin-like 1/Eg5, was included as a positive control. Data are expressed as percentage of cells in each phase relative to the untreated control (UTC); values above 100 are considered to indicate a delay or arrest in that phase of the cell cycle. […] In some cases, the same oligomeric compound was tested in repeated experiments.
In accordance with the present invention, certain oligomeric compounds targeting miRNAs were selected for dose response studies. Using the cell cycle assay described above, the cell cycle profiles of HeLa or A549 cells treated with varying concentrations of oligomeric compounds of the present invention were assessed.
HeLa cells were treated with 25-, 50-, 100- or 150 nM of the oligomeric compounds ISIS
Numbers 327902 (SEQ ID NO: 320) and 328383 (SEQ ID NO: 492), both targeted against mir-192, and ISIS 327905 (SEQ ID NO: 323), targeting mir-205, and ISIS 328403 (SEQ ID NO: 512), targeting mir-106. Cells treated with increasing concentrations of oligomeric compounds were compared to untreated cells, to assess the dose-dependency of the observed delay or arrest. The random-mer ISIS 29848 was used as a negative control. Cells were prepared for flow cytometry 48-hours after oligonucleotide treatment, as described, supra.

[1] = HeLa cells, 150 nM oligomeric compound, 24 hours, relative to untreated control (UTC = 100)
[2] = HeLa cells, 150 nM oligomeric compound
[3] = HeLa cells, 150 nM, 48 hours, relative to untreated control

Substance | chromosome missegregation (subG1 or aneuploid DNA content) (150 nM) | % cells aneuploid [1] | % cells in cell cycle phase G1 [1] | % cells in cell cycle phase G2/M [1] | % cells in cell cycle phase S [1] [%] | % cells in cell cycle phase subG1 [1] | % cells in cell cycle phase: G1 [2] | % cells in cell cycle phase: G2/M [2] | % cells in cell cycle phase: S [2] | % cells in cell cycle phase: aneuploid [2] | % cells in cell cycle phase: subG1 [2] [%] | phase of the cell cycle in which cells arrest or delay (150 nM, 24 hours) | phase of the cell cycle in which cells arrest or delay (150 nM, 48 hours) | % cells in cell cycle phase G1 [3] [%] | % cells in cell cycle phase G2/M [3] [%] | % cells in cell cycle phase S [3] [%] | % cells in cell cycle phase aneuploid [3] [%] | % cells in cell cycle phase subG1 [3] [%]
ISIS 338797: SEQ ID NO: 624, targeted to hypothetical miRNA-144 (CTGGGGAGGGGGTTAGCGTC; all 2'-MOE, all phosphorothioate, methylation of C not given here) | induce chromosome missegregation events |  |  |  |  |  |  |  |  |  |  |  |  |  |  |  |  | 
338750 (antisense TCCGCGGGGGCGGGGAGGCT; all 2'-MOE, all phosphorothioate, methylation of C not given here) [compound 338750] |  | 166% | 148% | 97% | 76 | 107% | 99% | 103% | 101% | 190% | 201 |  |  |  |  |  |  | 
328724 (antisense eG*eA*e[5mC]*eA*eT*d[5mC]*dA*dT*dG*dT*dG*dA*dT*dT*dT*eG*e[5mC]*eT*e[5mC]*eA) [compound 328724] |  | 197% | 91% | 135% | 90 | 155% | 70% | 140% | 134% | 155% | 653 |  |  |  |  |  |  | 
ISIS 328403: 5-10-5 2′-MOE gapmer PS; SEQ ID NO 512; targets mir-106 pri-miRNA (eA*eG*eG*e[5mC]*e[5mC]*dT*dA*dT*dT*d[5mC]*d[5mC]*dT*dG*dT*dA*eG*e[5mC]*eA*eA*eA) [5-10-5 2′-MOE gapmer PS; targets mir-106 pri-miRNA] |  |  |  |  |  |  |  |  |  |  |  | G2/M-phase | S- and G2/M-phases |  |  |  |  | 
328337 (eG*e[5mC]*eT*eA*eG*dA*dT*dA*d[5mC]*dA*dA*dA*dG*dA*dT*eG*eG*eA*eA*eA) [compound 328337] |  | 104% and 64% | 106% and 108% | 113% and 109% | 88 | 107% and 99% | 92% and 73% | 119% and 135% | 105% and 143% | 108% and 74% |  |  |  |  |  |  |  | 
341788 (antisense AGCCAAGCTCAGACGGATCCGA; all 2'-MOE, all phosphorothioate, methylation of C not given here) [compound 341788] |  | 114% | 154% | 140% | 54 | 303% | 76% | 163% | 105% | 116% | 748 |  |  |  |  |  |  | 
328749 (antisense e[5mC]*eA*eG*e[5mC]*e[5mC]*dT*dG*d[5mC]*d[5mC]*dA*d[5mC]*d[5mC]*dG*d[5mC]*d[5mC]*eG*e[5mC]*eT*eT*eT) [compound 328749] |  | 138% | 126% | 110% | 82 | 312% | 37% | 246% | 129% | 65% | 962 |  |  |  |  |  |  | 
341787 (antisense CACAGGTTAAAGGGTCTCAGGGA; all 2'-MOE, all phosphorothioate, methylation of C not given here) [compound 341787] |  | 165% | 113% | 144% | 75 | 221% | 55% | 197% | 126% | 153% | 707 |  |  | 88 | 145 | 96 | 177 | 324
341785 (antisense GGAGTGAAGACACGGAGCCAGA; all 2'-MOE, all phosphorothioate, methylation of C not given here) [compound 341785] |  | 158% | 152% | 53% | 92 | 125% | 82% | 116% | 126% | 166% | 1148 |  |  |  |  |  |  | 
338826 (antisense CGGATCCTGTTACCTCACCA; all 2'-MOE, all phosphorothioate, methylation of C not given here) [compound 338826] |  | 138% | 148% | 90% | 79 | 145% | 61% | 182% | 124% | 137% | 696 |  |  |  |  |  |  | 
ISIS 338833: SEQ ID NO: 660, targeted to hypothetical miRNA-181 (TCGTGCACCTGAGGAGTCTG; all 2'-MOE, all phosphorothioate, methylation of C not given here) | induce chromosome missegregation events |  |  |  |  |  |  |  |  |  |  |  |  |  |  |  |  | 
